The target of one series is T1, Cytochrome P450 2C8 (Homo sapiens, UniProt P10632).
T1 sequence (P10632 whole entry): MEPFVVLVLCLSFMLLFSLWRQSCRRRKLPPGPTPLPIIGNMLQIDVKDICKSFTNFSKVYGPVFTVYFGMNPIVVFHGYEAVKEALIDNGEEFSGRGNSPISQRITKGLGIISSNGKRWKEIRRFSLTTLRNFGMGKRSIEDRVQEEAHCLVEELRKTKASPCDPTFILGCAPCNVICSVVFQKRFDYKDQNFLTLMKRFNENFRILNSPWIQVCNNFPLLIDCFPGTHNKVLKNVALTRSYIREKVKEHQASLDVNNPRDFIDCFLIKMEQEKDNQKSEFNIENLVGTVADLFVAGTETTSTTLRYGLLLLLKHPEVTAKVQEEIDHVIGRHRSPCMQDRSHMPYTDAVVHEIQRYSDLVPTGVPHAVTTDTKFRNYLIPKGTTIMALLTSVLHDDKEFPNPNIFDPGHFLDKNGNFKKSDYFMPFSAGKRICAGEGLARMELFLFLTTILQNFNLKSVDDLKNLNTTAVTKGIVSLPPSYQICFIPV
As to the kind of experiment: Inhibition of CYP2C8 in human liver microsomes. The class given is ADME, Microsome. In general terms: Microsomes from liver hold many membrane-bound enzymes, among them those of drug oxidation.

Another series addresses Cytochrome P450 2C19 (Homo sapiens, UniProt P33261). Briefly: Inhibition of CYP2C19 in human liver microsomes. The class given is ADME, Microsome.
The subject of series [1] is Rattus norvegicus. As to the kind of experiment: AUC in rat at 1 mg/kg, iv. To be noted: in vivo. The class given is ADME, organism-based, Plasma. Also on record: dose 1 mg/kg, route intravenous.
For series [2], the system named is Rattus norvegicus. Briefly: Antidepressant activity in rat assessed as increase in extracellular 5HT level in dorsal lateral frontal cortex at 30 mg/kg, po after 3 hrs by microdialysis assay relative to basal level. The series is classed as functional.
Series [3] concerns Rattus norvegicus. Briefly: Antidepressant like activity in sc dosed rat resident-intruder model assessed as reduction of aggressive behavior level administered 30 mins prior to test. The class given is functional.
The target of the next series is D(3) dopamine receptor (Homo sapiens, UniProt P35462). As to the kind of experiment: Displacement of [3H]spiperone from human dopamine D3 receptor expressed in CHO cells. The class given is cell-based. (In general: Loss of bound radioactivity is the signal in a displacement assay; it reports binding, not function.)
D(3) dopamine receptor, sequence (P35462 whole entry): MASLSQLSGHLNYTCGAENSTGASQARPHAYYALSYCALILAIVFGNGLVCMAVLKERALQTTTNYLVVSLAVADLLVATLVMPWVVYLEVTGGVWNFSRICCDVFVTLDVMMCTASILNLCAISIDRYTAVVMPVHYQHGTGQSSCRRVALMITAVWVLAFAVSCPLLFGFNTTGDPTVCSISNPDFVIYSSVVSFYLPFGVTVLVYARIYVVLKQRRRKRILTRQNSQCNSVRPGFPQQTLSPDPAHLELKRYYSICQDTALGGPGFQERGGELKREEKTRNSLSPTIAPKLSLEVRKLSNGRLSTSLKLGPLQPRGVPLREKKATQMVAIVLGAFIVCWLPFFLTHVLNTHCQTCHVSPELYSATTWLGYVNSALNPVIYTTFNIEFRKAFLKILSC
The target of a further series is T2, D(4) dopamine receptor (Homo sapiens, UniProt P21917).
T2 sequence (P21917 whole entry): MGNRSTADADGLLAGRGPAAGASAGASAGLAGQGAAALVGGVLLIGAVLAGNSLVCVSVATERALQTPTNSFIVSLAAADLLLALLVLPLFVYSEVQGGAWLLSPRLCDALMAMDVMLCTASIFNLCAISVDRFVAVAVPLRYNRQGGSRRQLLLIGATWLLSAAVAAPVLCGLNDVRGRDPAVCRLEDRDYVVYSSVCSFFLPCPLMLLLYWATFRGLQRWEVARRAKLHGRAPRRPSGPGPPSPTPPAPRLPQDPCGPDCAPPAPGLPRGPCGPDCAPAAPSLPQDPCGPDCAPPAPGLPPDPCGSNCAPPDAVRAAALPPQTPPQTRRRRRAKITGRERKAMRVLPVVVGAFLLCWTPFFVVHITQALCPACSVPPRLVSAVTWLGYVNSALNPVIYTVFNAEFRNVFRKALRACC
As to the kind of experiment: Displacement of [3H]spiperone from human dopamine D4 receptor expressed in CHO cells. The class given is cell-based.

A short description of series [4]: Elimination half life in rat at 3 mg/kg, po. The series is classed as ADME, organism-based. Set-up: dose 3 mg/kg, route oral. The conditions noted are these: in vivo, read-out: beta t1/2 (converted).
In series [5] the target is T3, 5-hydroxytryptamine receptor 1A (Homo sapiens, UniProt P08908).
T3 sequence (P08908 whole entry): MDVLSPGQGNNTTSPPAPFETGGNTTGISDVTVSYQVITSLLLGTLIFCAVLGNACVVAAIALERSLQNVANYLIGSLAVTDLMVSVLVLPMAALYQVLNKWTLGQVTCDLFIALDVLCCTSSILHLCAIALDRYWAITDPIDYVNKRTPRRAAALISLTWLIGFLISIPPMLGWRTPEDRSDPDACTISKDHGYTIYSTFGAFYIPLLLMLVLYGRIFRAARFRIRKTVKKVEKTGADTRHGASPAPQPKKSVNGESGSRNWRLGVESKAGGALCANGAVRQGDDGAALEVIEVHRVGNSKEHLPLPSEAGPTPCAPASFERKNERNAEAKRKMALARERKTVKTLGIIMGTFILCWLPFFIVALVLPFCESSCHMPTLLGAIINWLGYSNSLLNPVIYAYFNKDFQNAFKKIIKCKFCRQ
Description: Antagonist activity at human 5HT1A receptor expressed in CHO cells assessed as stimulation of [35S]GTPgammaS binding

The target of another series is T4, Cytochrome P450 2A6 (Homo sapiens, UniProt P11509).
T4 sequence (P11509 whole entry): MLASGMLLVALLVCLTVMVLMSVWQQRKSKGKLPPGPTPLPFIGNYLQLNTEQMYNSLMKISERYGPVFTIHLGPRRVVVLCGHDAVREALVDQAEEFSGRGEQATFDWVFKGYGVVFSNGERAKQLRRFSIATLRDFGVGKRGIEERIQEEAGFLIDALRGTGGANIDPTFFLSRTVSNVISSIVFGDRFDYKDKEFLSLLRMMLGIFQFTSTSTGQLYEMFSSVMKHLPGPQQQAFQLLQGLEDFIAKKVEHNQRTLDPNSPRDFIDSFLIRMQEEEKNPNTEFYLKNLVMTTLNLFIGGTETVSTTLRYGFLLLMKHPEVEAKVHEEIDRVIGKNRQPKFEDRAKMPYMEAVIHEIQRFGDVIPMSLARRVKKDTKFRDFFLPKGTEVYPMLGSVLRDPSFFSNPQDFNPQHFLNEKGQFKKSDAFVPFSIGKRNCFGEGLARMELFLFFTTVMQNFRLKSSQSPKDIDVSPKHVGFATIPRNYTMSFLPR
As to the kind of experiment: Inhibition of CYP2A6 in human liver microsomes upto 100 uM. The class given is ADME, Microsome.

The nature of series [6]: Tmax in rat at 10 mg/kg, po. The series is classed as ADME, organism-based. Set-up: dose 10 mg/kg, route oral. The conditions noted are these: in vivo.
The target of another series is Cytochrome P450 3A4 (Homo sapiens, UniProt P08684). As to the kind of experiment: Inhibition of CYP3A4 in human liver microsomes. The series is classed as ADME, Microsome.
Cytochrome P450 3A4, sequence (P08684 whole entry): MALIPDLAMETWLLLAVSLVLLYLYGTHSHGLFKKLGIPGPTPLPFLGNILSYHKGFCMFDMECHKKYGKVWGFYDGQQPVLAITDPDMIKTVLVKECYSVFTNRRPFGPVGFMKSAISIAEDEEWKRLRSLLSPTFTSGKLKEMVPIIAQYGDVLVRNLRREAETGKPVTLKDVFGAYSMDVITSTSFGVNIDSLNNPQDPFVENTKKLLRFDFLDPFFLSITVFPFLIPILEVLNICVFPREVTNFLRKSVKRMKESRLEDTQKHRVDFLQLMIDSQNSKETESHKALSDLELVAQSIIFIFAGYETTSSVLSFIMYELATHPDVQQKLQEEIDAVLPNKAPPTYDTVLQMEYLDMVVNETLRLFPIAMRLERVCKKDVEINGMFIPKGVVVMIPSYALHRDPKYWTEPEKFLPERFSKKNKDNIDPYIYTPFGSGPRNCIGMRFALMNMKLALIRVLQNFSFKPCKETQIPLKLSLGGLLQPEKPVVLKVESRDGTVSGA
Series [7] concerns the target Sodium-dependent serotonin transporter (Rattus norvegicus, UniProt P31652).
Description: Displacement of [3H]paroxetine from 5HT transporter in rat cortical membrane
Series [8] can be described thus: Cmax in rat at 10 mg/kg, po. The class given is ADME, organism-based. To be noted: in vivo. Set-up: dose 10 mg/kg, route oral.
A short description of series [9]: AUC in rat at 3 mg/kg, po. The class given is ADME, organism-based. Also on record: dose 3 mg/kg, route oral. To be noted: plasma.
The target of the next series is Cytochrome P450 2D6 (Homo sapiens, UniProt P10635). As to the kind of experiment: Inhibition of CYP2D6 in human liver microsomes upto100 uM. The class given is ADME, Microsome.
Cytochrome P450 2D6, sequence (P10635 whole entry): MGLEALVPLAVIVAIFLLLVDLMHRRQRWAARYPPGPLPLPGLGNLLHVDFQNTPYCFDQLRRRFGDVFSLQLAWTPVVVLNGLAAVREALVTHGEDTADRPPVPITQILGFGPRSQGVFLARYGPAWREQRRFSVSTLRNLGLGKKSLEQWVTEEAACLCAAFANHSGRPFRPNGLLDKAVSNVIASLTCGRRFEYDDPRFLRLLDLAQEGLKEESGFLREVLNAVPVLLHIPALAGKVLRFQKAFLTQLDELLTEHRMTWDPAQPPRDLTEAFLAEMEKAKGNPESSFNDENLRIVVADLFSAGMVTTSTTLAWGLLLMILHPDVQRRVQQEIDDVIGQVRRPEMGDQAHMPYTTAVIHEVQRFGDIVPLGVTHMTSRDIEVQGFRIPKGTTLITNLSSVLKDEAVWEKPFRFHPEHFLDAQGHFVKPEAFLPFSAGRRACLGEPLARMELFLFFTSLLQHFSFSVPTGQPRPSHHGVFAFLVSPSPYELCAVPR
Series [10] has as its system Rattus norvegicus. As to the kind of experiment: Antidepressant like activity in sc dosed rat resident-intruder model assessed as effect on total behavior score administered 30 mins prior to test. The class given is functional. The conditions noted are these: read-out: ID50 (the source's name).
A further series deals with Cytochrome P450 2C9 (Homo sapiens, UniProt P11712). Briefly: Inhibition of CYP2C9 in human liver microsomes. The class given is ADME, Microsome.
Cytochrome P450 2C9, sequence (P11712 whole entry): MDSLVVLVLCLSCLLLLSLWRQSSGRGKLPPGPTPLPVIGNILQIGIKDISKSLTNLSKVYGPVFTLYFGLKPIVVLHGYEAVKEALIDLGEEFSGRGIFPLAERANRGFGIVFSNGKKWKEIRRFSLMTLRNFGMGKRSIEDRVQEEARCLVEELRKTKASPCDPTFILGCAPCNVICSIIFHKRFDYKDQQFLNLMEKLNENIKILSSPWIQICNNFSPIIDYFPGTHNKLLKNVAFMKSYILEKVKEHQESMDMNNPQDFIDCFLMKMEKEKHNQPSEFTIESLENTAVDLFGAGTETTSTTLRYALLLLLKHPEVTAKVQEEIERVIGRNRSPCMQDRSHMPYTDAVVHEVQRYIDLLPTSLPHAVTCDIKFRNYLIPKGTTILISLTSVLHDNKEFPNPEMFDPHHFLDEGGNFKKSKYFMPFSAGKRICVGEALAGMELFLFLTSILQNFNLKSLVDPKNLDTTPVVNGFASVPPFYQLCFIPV

Cytochrome P450 2C19, sequence (P33261 whole entry): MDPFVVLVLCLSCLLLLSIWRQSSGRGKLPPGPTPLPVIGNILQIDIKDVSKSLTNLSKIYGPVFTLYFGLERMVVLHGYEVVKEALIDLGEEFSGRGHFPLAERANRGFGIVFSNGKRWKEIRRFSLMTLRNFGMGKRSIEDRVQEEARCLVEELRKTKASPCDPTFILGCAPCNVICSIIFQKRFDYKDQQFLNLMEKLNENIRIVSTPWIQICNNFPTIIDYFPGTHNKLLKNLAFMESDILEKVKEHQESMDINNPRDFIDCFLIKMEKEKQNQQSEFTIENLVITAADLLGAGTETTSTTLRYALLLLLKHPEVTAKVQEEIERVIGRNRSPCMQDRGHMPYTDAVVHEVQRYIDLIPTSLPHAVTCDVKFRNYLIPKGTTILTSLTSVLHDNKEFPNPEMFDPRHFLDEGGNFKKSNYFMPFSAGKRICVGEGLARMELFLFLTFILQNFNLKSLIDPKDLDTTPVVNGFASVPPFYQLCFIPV
Sodium-dependent serotonin transporter, sequence (P31652 whole entry): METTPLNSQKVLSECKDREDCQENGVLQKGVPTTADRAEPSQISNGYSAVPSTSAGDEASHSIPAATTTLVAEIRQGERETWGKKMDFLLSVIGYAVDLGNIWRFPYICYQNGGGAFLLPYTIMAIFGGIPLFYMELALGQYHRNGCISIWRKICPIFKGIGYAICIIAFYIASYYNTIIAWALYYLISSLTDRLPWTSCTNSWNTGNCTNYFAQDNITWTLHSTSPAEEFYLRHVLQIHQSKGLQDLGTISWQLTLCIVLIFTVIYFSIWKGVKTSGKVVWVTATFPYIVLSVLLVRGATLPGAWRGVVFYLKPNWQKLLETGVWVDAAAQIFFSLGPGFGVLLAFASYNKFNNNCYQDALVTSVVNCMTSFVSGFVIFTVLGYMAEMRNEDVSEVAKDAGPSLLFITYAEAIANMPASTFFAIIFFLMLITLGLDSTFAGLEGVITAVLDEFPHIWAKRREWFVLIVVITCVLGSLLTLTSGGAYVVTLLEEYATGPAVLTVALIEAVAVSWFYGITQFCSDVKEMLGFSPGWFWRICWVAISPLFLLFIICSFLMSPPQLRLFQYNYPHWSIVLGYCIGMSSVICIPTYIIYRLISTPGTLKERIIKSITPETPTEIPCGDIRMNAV

Usually IC50 stands for the concentration at which inhibition is half-maximal. Low readings indicate greater potency, high ones weaker potency. Usually AUC stands for the area under the concentration-time curve, a measure of exposure. Low values mean low exposure, high ones high exposure. By Ki is commonly meant the dissociation constant of the complex between target and ligand, obtained from inhibition or displacement. A high value points to a looser hold on the target. By Tmax is commonly meant the time at which the peak concentration occurs. In general, Cmax refers to the highest concentration seen after dosing. For `Cc1ccc2c3c(ccc2n1)OC[C@H](CN1CCN(c2ccc4cc(C#N)ccc4n2)CC1)O3`, the IC50 was 29 µM against Cytochrome P450 2C8; 98 µM at Cytochrome P450 2C19; 0.102 µM in series [5]; 10 µM against Cytochrome P450 3A4; 358 µM on Cytochrome P450 2C9. The AUC in the series with Rattus norvegicus [1] was 1268 ng·h/mL; in series [9], 2320 ng·h/mL. Further, the Activity in the series with Rattus norvegicus [2] was 71%; in the series on Rattus norvegicus [3], “Dose-dependent effect”. For the same compound, the ED50 in the series on Rattus norvegicus [3] (read-out: ID50 (the source's name)) is 12.5 mg/kg; with Rattus norvegicus [10], more than 30 mg/kg. The results for the Ki (on D(3) dopamine receptor; on D(4) dopamine receptor; in series [7]) were 1.32 µM, 1.42 µM and 0.0138 µM, respectively. Moreover, in series [4], the half-life was 3.8 h. The “inhibition (INH)” value on Cytochrome P450 2A6 and on Cytochrome P450 2D6 was “Not Active” each time. Moreover, the Tmax in series [6] was determined as 1 h. The same compound showed a Cmax in series [8] of 815 ng/mL.

The record behind these values is ChEMBL document CHEMBL1151947, “Synthesis, potency, and in vivo evaluation of 2-piperazin-1-ylquinoline analogues as dual serotonin reuptake inhibitors and serotonin 5-HT1A receptor antagonists” (J Med Chem, 2009).
